Measured values published in ChEMBL document CHEMBL1201862, “PubChem BioAssay data set” (2004).
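Growth conditions: 96-well plates. Treatment: test compound, 48 hours, 5 concentrations. Analysis: linear interpolation between bracketing concentrations; unreached endpoints set to highest concentration. GI50 is the concentration that inhibits growth by half.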 Calls of active or inactive are those of the source. Cut-off read from the data, not from the text of the source: active = GI50 up to about 1.1 µM and inactive = higher.

Experiments:
Experiment in all cases: NCI anticancer screen, dose series, 48 h
[1] = tested on: SK-OV-3
[2] = tested on: U-251
[3] = tested on: SF-268
[4] = tested on: KM12
[5] = tested on: UO-31
[6] = tested on: SF-539
[7] = tested on: SR
[8] = tested on: HOP-92
[9] = tested on: NCI-H460
[10] = tested on: NCI-H226
[11] = tested on: SK-MEL-5
[12] = tested on: ACHN
[13] = tested on: MDA-MB-435
[14] = tested on: SF-295
[15] = tested on: Malme-3M
[16] = tested on: HL-60
[17] = tested on: OVCAR-3
[18] = tested on: SNB-75
[19] = tested on: SNB-19

Compound | GI50 [1] | GI50 [2] | GI50 [3] | GI50 [4] | GI50 [5] | GI50 [6] | GI50 [7] | GI50 [8] | GI50 [9] | GI50 [10] | GI50 [11] | GI50 [12] | GI50 [13] | GI50 [14] | GI50 [15] | GI50 [16] | GI50 [17] | GI50 [18] | GI50 [19]
COc1cc([C@@H]2c3cc4c(cc3C[C@@H]3COC(=O)C32)OCO4)cc(OC)c1O (stereo partly specified) | 0.0287 µM (active) | 0.0432 µM (active) | 0.0429 µM (active) | 0.0277 µM (active) | 0.0562 µM (active) | 0.0188 µM (active) | 0.011 µM (active) | 0.0957 µM (active) | 0.032 µM (active) | 1.39 µM (inactive) | 0.0221 µM (active) | 0.03 µM (active) | < 0.01 µM (active) | 0.0208 µM (active) | 0.0121 µM (active) | 0.0274 µM (active) | 0.0188 µM (active) | – | –
O=S(=O)(c1ccccc1)N1CCN(S(=O)(=O)c2ccccc2)c2ccccc21 | > 100 µM (inactive) | > 100 µM (inactive) | > 100 µM (inactive) | > 100 µM (inactive) | > 100 µM (inactive) | > 100 µM (inactive) | > 100 µM (inactive) | > 100 µM (inactive) | > 100 µM (inactive) | > 100 µM (inactive) | 73.3 µM (inactive) | > 100 µM (inactive) | > 100 µM (inactive) | 81.8 µM (inactive) | > 100 µM (inactive) | – | > 100 µM (inactive) | > 100 µM (inactive) | > 100 µM (inactive)
COC(=O)c1c(C(=O)OC)c2ccccn2c1-c1cc(OC)c(Br)c(=O)o1 | > 100 µM (inactive) | – | > 100 µM (inactive) | > 100 µM (inactive) | > 100 µM (inactive) | 56.8 µM (inactive) | > 100 µM (inactive) | – | > 100 µM (inactive) | > 100 µM (inactive) | > 100 µM (inactive) | > 100 µM (inactive) | > 100 µM (inactive) | > 100 µM (inactive) | > 100 µM (inactive) | > 100 µM (inactive) | > 100 µM (inactive) | 15.1 µM (inactive) | > 100 µM (inactive)
CCc1cccc(C(C)C)c1NC(=O)C(=O)C1C(=O)Nc2ccccc2[S+]1[O-] (stereo unspecified) | > 100 µM (inactive) | > 100 µM (inactive) | > 100 µM (inactive) | > 100 µM (inactive) | > 100 µM (inactive) | > 100 µM (inactive) | > 100 µM (inactive) | > 100 µM (inactive) | > 100 µM (inactive) | > 100 µM (inactive) | > 100 µM (inactive) | > 100 µM (inactive) | > 100 µM (inactive) | > 100 µM (inactive) | > 100 µM (inactive) | – | > 100 µM (inactive) | > 100 µM (inactive) | > 100 µM (inactive)
CC(C)(CNC(=O)/C(Cl)=C(/Cl)C(=O)O)CNC(=O)/C(Cl)=C(/Cl)C(=O)O | > 100 µM (inactive) | > 100 µM (inactive) | – | > 100 µM (inactive) | > 100 µM (inactive) | 67.6 µM (inactive) | 44.6 µM (inactive) | 78.3 µM (inactive) | > 100 µM (inactive) | > 100 µM (inactive) | > 100 µM (inactive) | 28.4 µM (inactive) | > 100 µM (inactive) | > 100 µM (inactive) | – | 34 µM (inactive) | > 100 µM (inactive) | > 100 µM (inactive) | > 100 µM (inactive)
Cc1cccc2c1c(=O)c1c(O)c3c(cc1n2C)OC(C)(C)C=C3 | > 10 µM (inactive) | > 10 µM (inactive) | > 10 µM (inactive) | > 10 µM (inactive) | – | > 10 µM (inactive) | 9.53 µM (inactive) | – | > 10 µM (inactive) | 6.46 µM (inactive) | > 10 µM (inactive) | > 10 µM (inactive) | > 10 µM (inactive) | > 10 µM (inactive) | > 10 µM (inactive) | > 10 µM (inactive) | > 10 µM (inactive) | > 10 µM (inactive) | > 10 µM (inactive)
C=CC(C)(C)/C(=C\CO[Si](C(C)C)(C(C)C)C(C)C)C(=O)N(C)c1ccccc1I | 16.3 µM (inactive) | 11.5 µM (inactive) | 11.5 µM (inactive) | 27.5 µM (inactive) | 12.8 µM (inactive) | 18 µM (inactive) | 6.81 µM (inactive) | 8.61 µM (inactive) | 13.6 µM (inactive) | – | 17.7 µM (inactive) | 13.1 µM (inactive) | 24.9 µM (inactive) | 13 µM (inactive) | – | 1.73 µM (inactive) | 11.6 µM (inactive) | 16.3 µM (inactive) | 14.5 µM (inactive)
CC(C)[N+]([O-])(CCCNc1c2ccccc2nc2cccc([N+](=O)[O-])c12)C(C)C | 0.262 µM (active) | < 0.0453 µM (active) | – | 0.065 µM (active) | – | 0.047 µM (active) | 0.0142 µM (active) | < 0.0355 µM (active) | 0.06 µM (active) | < 0.0456 µM (active) | < 0.0167 µM (active) | < 0.0441 µM (active) | < 0.0325 µM (active) | < 0.0412 µM (active) | < 0.041 µM (active) | < 0.0428 µM (active) | – | – | 0.0726 µM (active)
O=C1c2ccc(O)cc2OC(c2cc(O)c(O)c(O)c2)C1O (stereo unspecified) [DIHYDROBINETIN] | > 100 µM (inactive) | 22.5 µM (inactive) | 34.1 µM (inactive) | 26.7 µM (inactive) | 67.8 µM (inactive) | 21.5 µM (inactive) | 20.5 µM (inactive) | > 100 µM (inactive) | 19.8 µM (inactive) | 39.1 µM (inactive) | 33 µM (inactive) | 25.8 µM (inactive) | 19.8 µM (inactive) | 21.8 µM (inactive) | > 100 µM (inactive) | 19.9 µM (inactive) | 47.9 µM (inactive) | – | 41.4 µM (inactive)
COC(=O)Cc1cccc2c(=O)c(S(=O)(=O)NC(=O)Nc3ccc(Cl)cc3)c(-c3ccccc3)oc12 | > 100 µM (inactive) | 50.6 µM (inactive) | 73.5 µM (inactive) | 34.4 µM (inactive) | 25.8 µM (inactive) | 58.5 µM (inactive) | 36.9 µM (inactive) | 29.6 µM (inactive) | 32.7 µM (inactive) | > 100 µM (inactive) | 30.2 µM (inactive) | 12.2 µM (inactive) | 11.3 µM (inactive) | 67.9 µM (inactive) | – | – | 79.8 µM (inactive) | > 100 µM (inactive) | 44.6 µM (inactive)
CCOC(=O)C(O)(CC1=NC(C(=O)OC)(C(=O)OC)C(c2cccc(C=O)c2)O1)C(=O)OCC (stereo unspecified) | > 100 µM (inactive) | > 100 µM (inactive) | – | > 100 µM (inactive) | > 100 µM (inactive) | – | > 100 µM (inactive) | > 100 µM (inactive) | > 100 µM (inactive) | > 100 µM (inactive) | > 100 µM (inactive) | > 100 µM (inactive) | > 100 µM (inactive) | – | – | 25.3 µM (inactive) | > 100 µM (inactive) | > 100 µM (inactive) | > 100 µM (inactive)
